Experimental data: article PMC4761407 (ACS Chemical Biology, 2015)

Target: CatSper channel complex (Homo sapiens, UniProt Q7RTX7+Q86XQ3+Q8NEC5+Q96P56)
Assay: whole-cell patch clamp:[…] inhibits sirenin-induced ICatSper
Format: cell-based

CatSper channel complex, sequence (Q8NEC5 whole entry): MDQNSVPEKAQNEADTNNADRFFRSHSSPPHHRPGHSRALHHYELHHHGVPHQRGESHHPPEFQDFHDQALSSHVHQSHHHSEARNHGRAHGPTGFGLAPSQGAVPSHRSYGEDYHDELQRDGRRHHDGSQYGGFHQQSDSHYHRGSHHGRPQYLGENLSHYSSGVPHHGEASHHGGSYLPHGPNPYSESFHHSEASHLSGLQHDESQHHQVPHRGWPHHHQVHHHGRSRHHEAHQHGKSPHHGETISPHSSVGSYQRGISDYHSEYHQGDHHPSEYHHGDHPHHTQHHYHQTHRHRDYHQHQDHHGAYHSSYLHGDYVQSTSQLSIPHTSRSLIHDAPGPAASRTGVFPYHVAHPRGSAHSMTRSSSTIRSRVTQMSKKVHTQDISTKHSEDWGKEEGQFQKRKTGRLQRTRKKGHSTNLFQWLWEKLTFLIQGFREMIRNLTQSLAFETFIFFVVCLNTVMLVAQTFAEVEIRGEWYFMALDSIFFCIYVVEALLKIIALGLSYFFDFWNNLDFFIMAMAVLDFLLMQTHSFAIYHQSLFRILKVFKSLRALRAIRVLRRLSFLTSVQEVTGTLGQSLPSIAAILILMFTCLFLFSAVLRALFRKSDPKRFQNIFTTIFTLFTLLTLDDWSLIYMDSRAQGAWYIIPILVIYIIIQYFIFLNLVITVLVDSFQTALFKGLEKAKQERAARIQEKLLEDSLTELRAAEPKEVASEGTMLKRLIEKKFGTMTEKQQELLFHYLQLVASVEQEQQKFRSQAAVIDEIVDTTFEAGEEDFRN
CatSper channel complex, sequence (Q96P56 whole entry): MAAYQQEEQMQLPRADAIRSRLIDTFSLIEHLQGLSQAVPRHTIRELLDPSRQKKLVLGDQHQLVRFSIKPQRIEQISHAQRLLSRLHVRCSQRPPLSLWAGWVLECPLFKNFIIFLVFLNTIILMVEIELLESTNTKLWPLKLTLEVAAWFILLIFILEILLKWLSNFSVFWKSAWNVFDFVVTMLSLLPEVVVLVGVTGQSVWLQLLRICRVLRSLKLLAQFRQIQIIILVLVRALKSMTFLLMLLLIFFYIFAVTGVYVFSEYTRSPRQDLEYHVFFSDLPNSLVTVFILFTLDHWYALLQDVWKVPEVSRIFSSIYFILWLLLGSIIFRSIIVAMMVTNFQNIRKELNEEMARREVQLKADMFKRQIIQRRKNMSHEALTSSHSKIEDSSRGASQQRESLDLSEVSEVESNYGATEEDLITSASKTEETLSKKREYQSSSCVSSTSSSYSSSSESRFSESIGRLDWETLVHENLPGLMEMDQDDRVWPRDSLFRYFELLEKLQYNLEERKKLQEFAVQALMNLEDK
CatSper channel complex, sequence (Q7RTX7 whole entry): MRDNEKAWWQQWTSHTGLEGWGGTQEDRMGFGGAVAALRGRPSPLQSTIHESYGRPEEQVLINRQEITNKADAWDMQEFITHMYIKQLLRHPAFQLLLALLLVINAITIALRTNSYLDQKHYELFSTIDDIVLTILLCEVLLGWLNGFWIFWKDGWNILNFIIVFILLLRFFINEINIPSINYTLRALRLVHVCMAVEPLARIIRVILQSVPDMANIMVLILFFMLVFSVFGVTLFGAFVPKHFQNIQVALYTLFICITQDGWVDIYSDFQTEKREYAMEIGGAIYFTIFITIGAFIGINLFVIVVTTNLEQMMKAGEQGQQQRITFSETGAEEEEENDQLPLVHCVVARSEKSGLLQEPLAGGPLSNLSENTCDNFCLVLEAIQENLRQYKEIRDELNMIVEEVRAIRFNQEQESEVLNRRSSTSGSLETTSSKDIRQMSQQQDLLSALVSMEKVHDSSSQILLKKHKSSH
CatSper channel complex, sequence (Q86XQ3 whole entry): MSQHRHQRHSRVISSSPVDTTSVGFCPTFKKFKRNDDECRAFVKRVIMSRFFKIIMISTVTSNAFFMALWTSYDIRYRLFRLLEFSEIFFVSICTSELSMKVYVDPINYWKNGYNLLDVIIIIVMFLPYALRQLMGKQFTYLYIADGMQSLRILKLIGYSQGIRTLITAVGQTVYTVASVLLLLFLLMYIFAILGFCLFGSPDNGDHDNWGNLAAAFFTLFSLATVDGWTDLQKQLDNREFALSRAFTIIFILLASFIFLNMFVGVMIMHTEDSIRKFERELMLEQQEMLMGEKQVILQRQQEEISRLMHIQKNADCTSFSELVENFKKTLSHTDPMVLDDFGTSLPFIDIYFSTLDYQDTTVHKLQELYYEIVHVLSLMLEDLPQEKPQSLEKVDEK

SMILES: COCC(=O)O[C@]1(CCN(C)CCCc2nc3ccccc3[nH]2)CCc2cc(F)ccc2[C@@H]1C(C)C [mibefradil]
- whole-cell patch clamp: 30 μM inhibits sirenin-induced ICatSper; FLIPR: 55% redu: 30 µM
